Test results as given in patent US10946383B2, “Oligonucleotide encoded chemical libraries” (Plexium, Inc., priority 2017, dated 2021).

Target: Cathepsin-D protease (Homo sapiens, UniProt P07339)
Test: Cathepsin-D protease inhibition assay in picowells with bead-released compound and Peptide Q-Fluor substrate
Format: biochemical
Settings: compound released from 10 μm TentaGel beads by UV (365 nm, 77 J/cm^2) to approximately 13 μM; 30 min, 37° C.

Cathepsin-D protease, sequence (P07339 65-412): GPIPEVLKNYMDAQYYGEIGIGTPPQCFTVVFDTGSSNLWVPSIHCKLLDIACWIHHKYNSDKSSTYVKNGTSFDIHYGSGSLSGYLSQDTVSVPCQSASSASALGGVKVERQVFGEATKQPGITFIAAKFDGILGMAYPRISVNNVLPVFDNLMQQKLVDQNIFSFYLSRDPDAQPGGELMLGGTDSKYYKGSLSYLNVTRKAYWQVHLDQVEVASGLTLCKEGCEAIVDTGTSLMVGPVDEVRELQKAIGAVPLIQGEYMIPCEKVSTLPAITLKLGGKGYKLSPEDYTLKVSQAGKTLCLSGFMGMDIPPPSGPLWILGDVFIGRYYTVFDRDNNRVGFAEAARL

Cathepsin-D inhibition (fluorescence of cleaved Peptide Q-Fluor substrate): no Cathepsin-D inhibition
Compound: CC(C)[C@H](NC(=O)OCC1c2ccccc2-c2ccccc21)C(=O)O [negative control beads, Fmoc-Valine]
